A value given as a limit tells only on which side of the number the result lay.

The target in test [1] is T1, mutEGFR (D770_N771insNPG, T790) (Homo sapiens, UniProt P00533, INS770NPG/T790M).
T1 construct: exact insNPG construct not described; in-house EGFR proteins were N-terminal GST fusions from baculovirus/insect cells (borders R669-A1210 given only for WT, insSVD, insASV)
In words: mutEGFR (D770_N771insNPG, T790) kinase assay. In kind it is biochemical. To be noted: Table 2a, D770_N771insNPG. The source says: The different EGFR proteins used in the biochemical kinase activity inhibition assays were generated inhouse by expression in insect cells using Baculo Virus system and subsequent purification as described in the following paragraphs.
The cDNAs encoding the various protein sequences from human EGFR human (P00533) were optimized for expression in eukaryotic cells and synthesized by the GeneArt Technology at Life Technologies.

The target of test [2] is T2, mutEGFR (D770_N771insSVD) (Homo sapiens, UniProt P00533, DUP768-770).
T2 construct: GST-EGFR #3 (SVD between D770 and N771); made in house; host or cells: Sf9 insect cells (baculovirus)
T2 sequence (P00533 with tags, fused parts or gaps DUP768-770): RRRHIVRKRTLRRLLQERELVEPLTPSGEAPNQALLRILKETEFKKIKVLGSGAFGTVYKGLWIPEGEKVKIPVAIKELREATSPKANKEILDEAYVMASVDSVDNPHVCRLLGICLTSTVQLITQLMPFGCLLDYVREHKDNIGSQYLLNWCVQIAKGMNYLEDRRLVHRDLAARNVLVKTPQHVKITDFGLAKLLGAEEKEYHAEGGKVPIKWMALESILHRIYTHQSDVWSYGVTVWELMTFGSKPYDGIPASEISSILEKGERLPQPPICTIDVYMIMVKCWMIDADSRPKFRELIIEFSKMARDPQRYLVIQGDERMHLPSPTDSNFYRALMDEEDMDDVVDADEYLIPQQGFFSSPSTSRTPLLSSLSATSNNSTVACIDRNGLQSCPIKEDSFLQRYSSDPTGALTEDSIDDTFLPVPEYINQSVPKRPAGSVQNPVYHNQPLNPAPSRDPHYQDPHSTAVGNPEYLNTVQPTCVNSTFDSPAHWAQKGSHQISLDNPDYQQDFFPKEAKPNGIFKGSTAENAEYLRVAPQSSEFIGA
In words: Exon20-Mutant-EGFR (D770_N771insSVD) kinase assay (TR-FRET). Conditions: mutEGFR (D770_N771insSVD) kinase assay IC50, Table 2a; D770_N771insSVD; 2 mM ATP. In kind it is biochemical. For orientation: In TR-FRET formats the signal depends on donor and acceptor labels being close together.

Another test deals with BA/F3 (insSVD) cells. In words: Ba/F3-EGFR-insSVD cell survival assay (Cell Titer-Glo). In kind it is cell-based. Conditions: Table 3a, cell survival, Cell Titer-Glo, with 10 ng/ml EGF, without IL-3. The gist of the method:
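CellTiter-Glo luminescence read after 48 h compound exposure at 37° C. Cells: IL-3-independent Ba/F3 lines transduced with EGFR-insSVD or EGFR-insSVD T790M, maintained on 10 ng/ml EGF and seeded at 4000 per well.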

T1 sequence (P00533 with tags, fused parts or gaps INS770NPG/T790M limits assumed): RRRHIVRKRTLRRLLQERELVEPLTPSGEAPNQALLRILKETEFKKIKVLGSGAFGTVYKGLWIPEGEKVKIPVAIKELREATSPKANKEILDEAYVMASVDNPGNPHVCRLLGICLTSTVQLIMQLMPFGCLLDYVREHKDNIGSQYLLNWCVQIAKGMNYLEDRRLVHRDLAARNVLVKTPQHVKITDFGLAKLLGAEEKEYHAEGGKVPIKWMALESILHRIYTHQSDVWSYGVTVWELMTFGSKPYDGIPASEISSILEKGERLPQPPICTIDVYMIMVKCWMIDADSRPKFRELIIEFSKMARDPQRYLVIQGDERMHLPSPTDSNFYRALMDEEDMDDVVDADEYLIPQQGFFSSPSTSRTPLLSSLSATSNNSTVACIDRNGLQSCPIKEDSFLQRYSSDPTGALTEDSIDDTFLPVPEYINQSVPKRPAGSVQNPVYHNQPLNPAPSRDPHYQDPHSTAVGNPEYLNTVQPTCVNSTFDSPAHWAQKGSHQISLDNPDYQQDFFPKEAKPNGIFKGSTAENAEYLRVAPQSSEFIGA

`C=CC(=O)N1Cc2c(-c3ccncc3)c(-c3ccc(Cl)cc3F)nn2C(C)C1` (single isomer, unassigned; isomer 1) [Example 282, 1-[2-(4-chloro-2-fluorophenyl)-7-methyl-3-(pyridin-4-yl)-6,7-dihydropyrazolo[1,5-a]pyrazin-5(4H)-yl]prop-2-en-1-one (isomer 1)]: the IC50 in test [1] amounted to 0.282 nM; in test [2] it was 0.117 nM; in the test with BA/F3 (insSVD) cells (Mus musculus, BaF3, 48 h) it was 6.15 nM.

As for `CC1c2c(-c3ccncc3)c(-c3ccc(Cl)cc3F)nn2CCN1C(=O)/C=C/CN(C)C` (single isomer, unassigned; isomer 1) [Example 285, (2E)-1-[2-(4-chloro-2-fluorophenyl)-4-methyl-3-(pyridin-4-yl)-6,7-dihydropyrazolo[1,5-a]pyrazin-5(4H)-yl]-4-(dimethylamino)but-2-en-1-one (isomer 1)], the IC50 in test [1] amounted to 0.644 nM; in test [2] it was 0.232 nM; in the test with BA/F3 (insSVD) cells (48 h), 42 nM.

As to `CC1CN(C(=O)/C=C/CN(C)C)Cc2c(-c3ccncc3)c(-c3ccc(Cl)cc3F)nn21` (single isomer, unassigned; isomer 1) [Example 287, (2E)-1-[2-(4-chloro-2-fluorophenyl)-7-methyl-3-(pyridin-4-yl)-6,7-dihydropyrazolo[1,5-a]pyrazin-5(4H)-yl]-4-(dimethylamino)but-2-en-1-one (isomer 1)], the concentration for half-maximal inhibition (IC50) in test [1] came out at 0.415 nM; in test [2], 0.22 nM; in the test on BA/F3 (insSVD) cells (Mus musculus, BaF3, 48 h) it was 37.3 nM.

Take `C=CC(=O)N1C(C)c2c(-c3ccncc3)c(-c3ccc(Cl)cc3F)nn2C[C@@H]1C` (single isomer, unassigned; isomer 1) [Example 292]: the 50% inhibitory concentration (IC50) worked out at 0.34 nM in test [1], 0.129 nM in test [2] and 4.08 nM in the test on BA/F3 (insSVD) cells (48 h).

For the compound `C=CC(=O)N1CCn2nc(-c3ccc(C(F)(F)F)cc3)c(-c3ccnc4[nH]ccc34)c2C1C` (single isomer, unassigned; isomer 2) [Example 247, 1-(4-methyl-3-(1H-pyrrolo[2,3-b]pyridin-4-yl)-2-(4-(trifluoromethyl)phenyl)-6,7-dihydropyrazolo[1,5-a]pyrazin-5(4H)-yl) prop-2-en-1-one (isomer 2)], the IC50 in test [1] was found to be 933 nM; in test [2], 6.99 nM; in the test with BA/F3 (insSVD) cells (Mus musculus, BaF3, 48 h) it was 134 nM.

In the case of `C=CC(=O)N1CCn2nc(-c3ccc(F)cc3)c(-c3ccnc4[nH]cc(C)c34)c2C1C` (single isomer, unassigned; isomer 2) [Example 250, 1-(2-(4-fluorophenyl)-4-methyl-3-(3-methyl-1H-pyrrolo[2,3-b]pyridin-4-yl)-6,7-dihydropyrazolo[1,5-a]pyrazin-5(4H)-yl) prop-2-en-1-one (isomer 2)], the concentration for half-maximal inhibition (IC50) in test [1] was 216 nM; in test [2], 435 nM; in the test with BA/F3 (insSVD) cells (48 h) it was 75.1 nM.

On to `CC1c2c(-c3ccnc4[nH]ccc34)c(-c3ccc(C(F)(F)F)cc3)nn2CCN1C(=O)/C=C/CN(C)C` (single isomer, unassigned; isomer 2) [Example 252, 4-(dimethylamino)-1-[4-methyl-3-(1H-pyrrolo[2,3-b]pyridin-4-yl)-2-[4-(trifluoromethyl)phenyl]-6,7-dihydropyrazolo[1,5-a]pyrazin-5(4H)-yl]but-2-en-1-one (isomer 2)], for which the 50% inhibitory concentration (IC50) amounted to 2840 nM in test [1]; 11.7 nM in test [2]; 180 nM in the test with BA/F3 (insSVD) cells (Mus musculus, BaF3, 48 h).

As for `Cc1c[nH]c2nccc(-c3c(-c4ccc(C(F)(F)F)cc4)nn4c3C(C)N(C(=O)/C=C/CN(C)C)CC4)c12` (single isomer, unassigned; isomer 2) [Example 253, 4-(dimethylamino)-1-(4-methyl-3-(3-methyl-1H-pyrrolo[2,3-b]pyridin-4-yl)-2-(4-(trifluoromethyl)phenyl)-6,7-dihydropyrazolo[1,5-a]pyrazin-5(4H)-yl) but-2-en-1-one (isomer 2)], the half-maximal inhibitory concentration (IC50) in test [1] was 3950 nM; in test [2], 247 nM; in the test with BA/F3 (insSVD) cells (48 h), 490 nM.

On to `Cc1c[nH]c2nccc(-c3c(-c4ccc(F)cc4)nn4c3C(C)N(C(=O)/C=C/CN(C)C)CC4)c12` (single isomer, unassigned; isomer 2) [Example 256, (E)-4-(dimethylamino)-1-(2-(4-fluorophenyl)-4-methyl-3-(3-methyl-1H-pyrrolo[2,3-b]pyridin-4-yl)-6,7-dihydropyrazolo[1,5-a]pyrazin-5(4H)-yl) but-2-en-1-one (isomer 2)], for which the IC50 was over 1630 nM in test [1]; 7490 nM in test [2]; 158 nM in the test on BA/F3 (insSVD) cells (Mus musculus, BaF3, 48 h).

With `C=CC(=O)N1CCn2nc(-c3ccc(F)cc3)c(-c3ccnc4[nH]ccc34)c2C1C` (single isomer, unassigned; isomer 2) [Example 261, 1-(2-(4-fluorophenyl)-4-methyl-3-(1H-pyrrolo[2,3-b]pyridin-4-yl)-6,7-dihydropyrazolo[1,5-a]pyrazin-5(4H)-yl) prop-2-en-1-one (isomer 2)], the results for the concentration for half-maximal inhibition (IC50) (in test [1]; in test [2]; in the test on BA/F3 (insSVD) cells (48 h)) were 7.3 nM, 6.5 nM and 111 nM, respectively.

Regarding `CC1c2c(-c3ccnc4[nH]ccc34)c(-c3ccc(F)cc3)nn2CCN1C(=O)/C=C/CN(C)C` (single isomer, unassigned; isomer 2) [Example 267, (E)-4-(dimethylamino)-1-(2-(4-fluorophenyl)-4-methyl-3-(1H-pyrrolo[2,3-b]pyridin-4-yl)-6,7-dihydropyrazolo[1,5-a]pyrazin-5(4H)-yl) but-2-en-1-one (isomer 2)], the IC50 was 21.7 nM in test [1], 24.9 nM in test [2] and 257 nM in the test with BA/F3 (insSVD) cells (48 h).

Regarding `C=CC(=O)N1Cc2c(-c3ccncc3)c(-c3ccc(OC)cc3)nn2C(C)C1` (single isomer, unassigned; isomer 2) [Example 275, 1-[2-(4-methoxyphenyl)-7-methyl-3-(pyridin-4-yl)-6,7-dihydropyrazolo[1,5-a]pyrazin-5(4H)-yl]prop-2-en-1-one (isomer 2)], the IC50 was 1.22 nM in test [1], 0.476 nM in test [2] and 16.8 nM with BA/F3 (insSVD) cells (48 h).

Regarding `C=CC(=O)N1CCn2nc(-c3ccc(Cl)cc3F)c(-c3ccncc3)c2C1C` (single isomer, unassigned; isomer 2) [Example 279, 1-[2-(4-chloro-2-fluorophenyl)-4-methyl-3-(pyridin-4-yl)-6,7-dihydropyrazolo[1,5-a]pyrazin-5(4H)-yl]prop-2-en-1-one (isomer 2)], the IC50 was 62.2 nM in test [1], 50.6 nM in test [2] and 429 nM with BA/F3 (insSVD) cells (48 h).

For the compound `CC1c2c(-c3ccncc3)c(-c3ccc(Cl)cc3F)nn2CCN1C(=O)/C=C/CN(C)C` (single isomer, unassigned; isomer 2) [Example 286, (2E)-1-[2-(4-chloro-2-fluorophenyl)-4-methyl-3-(pyridin-4-yl)-6,7-dihydropyrazolo[1,5-a]pyrazin-5(4H)-yl]-4-(dimethylamino)but-2-en-1-one (isomer 2)], the IC50 was 95.7 nM in test [1], 71 nM in test [2] and 843 nM with BA/F3 (insSVD) cells (48 h).

The IC50 is the concentration needed to halve the response being measured. Higher therefore signals a need for much substance.

(Values after patent US20260365653A1, “IRREVERSIBLE MUTEGFR INHIBITORS” (Bayer Aktiengesellschaft, priority 2022, published 2026).)
